Article PMC11720106, “Synthesis of Pyrazole-Based Inhibitors of the Bacterial Enzyme N-Succinyl-L,L-2,6-Diaminopimelic Acid Desuccinylase (DapE) as Potential Antibiotics” (International Journal of Molecular Sciences, 2024)
Values joined by “and” are separate entries in the source; they are usually repeats but may differ in a detail not shown here. Identical values can stand only once. One block for each compound: values may come before it.

Legend:
HiDapE [1] = target: T1, HiDapE (Haemophilus influenzae, UniProt P44514); experiment: Discontinuous ninhydrin-based HiDapE inhibition assay; type: biochemical; details: 8 nM HiDapE, 2 mM N6-methyl-L,L-SDAP; for IC50: 5–200 μM inhibitor; for inhibition at 100 µM: pH 7.5, 100 μM inhibitor
T1 sequence (P44514 whole entry): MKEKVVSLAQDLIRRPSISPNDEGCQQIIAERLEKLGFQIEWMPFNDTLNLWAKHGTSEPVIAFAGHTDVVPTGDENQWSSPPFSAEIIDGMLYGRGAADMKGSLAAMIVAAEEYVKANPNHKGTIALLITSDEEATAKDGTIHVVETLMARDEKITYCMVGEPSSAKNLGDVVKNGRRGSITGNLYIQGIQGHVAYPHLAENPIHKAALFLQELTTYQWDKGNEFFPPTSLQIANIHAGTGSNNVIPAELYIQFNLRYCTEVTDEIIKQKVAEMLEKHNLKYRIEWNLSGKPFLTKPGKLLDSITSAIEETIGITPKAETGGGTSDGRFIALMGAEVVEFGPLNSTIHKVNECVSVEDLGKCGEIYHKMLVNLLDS
Experimental: Inhibitory Assay Protocol: A discontinuous inhibition assay was performed utilizing a Techne PCR Thermal Cycler System. The volume of each component was adjusted to fit a total reaction volume of 100 μL. The final potential inhibitor concentration was 100 μM for pyrazoles 7a–7r for screening experiments or 5–200 μM for IC50 experiments. All potential inhibitors were dissolved in neat dimethylsulfoxide (DMSO), and the pre-assay concentrations were adjusted to give a final concentration of 5% DMSO in the assay. The final HiDapE concentration was 8 nM. To a 50 mM HEPES (pH 7.5) buffered solution at 30 °C was added the selected inhibitor followed by HiDapE and incubated for 10 min. N^6-Methyl-L,L-SDAP (2 mM) was added, and the mixture was allowed to react for 10 min, followed by heating at 100 °C for 1 min and then cooled to 0 °C for 1 min. A 2% ninhydrin solution (100 μL) was added, and the mixture was mixed well by rapid pipetting while cooled at 0 °C. The reaction was then heated at 80 °C for 15 min. The absorbance of an 80 μL aliquot was recorded at 570 nm on a BioTek Synergy 2 microplate reader (Biotek Instruments, Winooski, VT, USA). All inhibition assays were performed in triplicate. The data were then exported and analyzed using Prism (version 10.4.1, GraphPad Prism, Boston, MA, USA).

HiDapE [2] = target: T1, HiDapE; experiment: Discontinuous kinetic competition assay with HiDapE; type: biochemical
Experimental: We performed kinetic competition assays to investigate and confirm the binding mode of the pyrazole inhibitors. […] The velocity of the HiDapE enzyme was measured with different concentrations of substrate from 0 to 100 μM, and the plot is shown in Figure 2. After running the AICc statistical analysis to compare noncompetitive and competitive models, it was determined that a competitive binding mode is over 100 times more likely than noncompetitive binding with a 99.2% probability.
Kinetic assay Protocol: A discontinuous kinetic assay was performed utilizing a Techne PCR Thermal Cycler System. The volume of each component was adjusted to fit a total reaction volume of 100 μL. The final potential inhibitor concentration was 0, 20, 40, 60, and 100 μM for pyrazole 7r, where the inhibitor was dissolved in dimethylsulfoxide (DMSO), and the pre-assay concentrations were adjusted to give a final concentration of 5% DMSO in the assay. The in-assay HiDapE concentration was 8 nM. To a 50 mM HEPES (pH 7.5) buffered solution at 30 °C was added the selected inhibitor followed by HiDapE and incubated for 10 min. N^6-Methyl-L,L-SDAP at varied concentrations (0–8 mM) were added, and the mixture was allowed to react for 10 min, followed by heating at 100 °C for 1 min and then cooled to 0 °C for 1 min. A 2% ninhydrin solution (50 μL) was added, and the mixture was mixed well by rapid pipetting while cooled at 0 °C. The reaction was then heated at 80 °C for 15 min. The absorbance of an 80 μL aliquot was recorded at 570 nm on a BioTek Synergy 2 microplate reader. All concentrations were performed in triplicate. The data were then exported and analyzed using Prism using a non-linear regression Michaelis–Menten equation and using AICc statistical analysis to determine which inhibitory binding mode was preferred.

HiDapE [3] = target: T1, HiDapE; experiment: Thermal shift assay (SYPRO Orange); type: binding; details: for Tm1 (HiDapE): 200 nM enzyme, 10X dye
Experimental: A thermal shift assay was conducted to observe changes in the thermal stability of DapE under various concentrations of the inhibitor (R)-7q, as summarized in Table 2. These studies were conducted on a Step One Real-Time PCR System^TM (Applied Biosystems, Waltham, MA, USA) and associated QuantStudio software (Version 7) through the fluorescence of the SYPRO Orange dye (Fisher Scientific, Waltham, MA, USA) during protein denaturation. We also used the thermal shift assay results to calculate the Ki value of pyrazole (R)-7q. […] Additionally, we observed a subsequent Tm2 at 78.0 °C involving a destabilization of the enzyme, as shown by the approximate −3 °C negative shift in melt temperature as the inhibitor increases in concentration, indicating at this elevated temperature that the inhibitor is binding to primarily the molten globule state. We have previously observed the second melt temperature with the DapE enzyme.
Thermal Shift Assay Protocol: Thermal shift studies were conducted on a Step One Real-Time PCR System and the associated QuantStudio software. Protein denaturation was measured by detecting the change in fluorescence of the SYPRO Orange dye. HiDapE was used at a final concentration of 200 nM, and SYPRO Orange was used at a final concentration of 10×. The experiment was carried out in 10 μL triplicates in 50 mM HEPES buffer at pH 7.5 in nanopure water, and the inhibitor concentrations were selected based on the half-maximal inhibitory concentration (IC50) values of the inhibitor. Sample solutions were dispensed into a 96-well optical reaction plate (Thermo Fisher Scientific, Kalamazoo, MI, USA), and the plate was sealed with an optical PCR plate sheet (Thermo Fisher Scientific, Kalamazoo, MI, USA). The assay was run according to Bhayani. Melting curves were obtained from the negative derivative and exported from the instrument to Microsoft Excel (Version 2402). The negative first derivatives of the melting curves were differentiated into the […]. Tm values were plotted against the log [concentration], and the Ki values were calculated using a derived Van’t Hoff equation according to Bhayani

IC50 (HiDapE [1]; pH 7.5): 22.4 µM
inhibition at 100 µM (HiDapE [1]; triplicate): 95.2 ± 0.6%
Compound: Cc1cc(SCC(=O)Nc2nccs2)n(-c2ccccc2)n1 [Compound 7a, 2-((3-Methyl-1-phenyl-1H-pyrazol-5-yl)thio)-N-(thiazol-2-yl)acetamide]

inhibition at 100 µM (HiDapE [1]; triplicate): 20.3 ± 3.6%
Compound: Cc1cc(SCC(=O)Nc2ccon2)n(-c2ccccc2)n1 [Compound 7b, N-(Isoxazol-3-yl)-2-((3-methyl-1-phenyl-1H-pyrazol-5-yl)thio)acetamide]

inhibition at 100 µM (HiDapE [1]; triplicate): 80.5 ± 3%
Compound: Cc1cc(SCC(=O)Nc2ccccc2)n(-c2ccccc2)n1 [Compound 7c, 2-((3-Methyl-1-phenyl-1H-pyrazol-5-yl)thio)-N-phenylacetamide]

IC50 (HiDapE [1]; pH 7.5): 17.9 µM
inhibition at 100 µM (HiDapE [1]; triplicate): 85.7 ± 1.2%
Compound: Cc1cc(SCC(=O)Nc2ccccn2)n(-c2ccccc2)n1 [Compound 7d, 2-((3-Methyl-1-phenyl-1H-pyrazol-5-yl)thio)-N-(pyridine-2-yl)acetamide]

inhibition at 100 µM (HiDapE [1]; triplicate): 64.3 ± 5.5%
Compound: Cc1ccc(NC(=O)CSc2cc(C)nn2-c2ccccc2)nc1 [Compound 7e, 2-((3-Methyl-1-phenyl-1H-pyrazol-5-yl)thio)-N-(5-methylpyridin-2-yl)acetamide]

inhibition at 100 µM (HiDapE [1]; triplicate): 54.2 ± 0.3%
Compound: Cc1cc(SCC(=O)Nc2ccc(Cl)cn2)n(-c2ccccc2)n1 [Compound 7f, N-(5-Chloropyridin-2-yl)-2-((3-methyl-1-phenyl-1H-pyrazol-5-yl)thio)acetamide]

inhibition at 100 µM (HiDapE [1]; triplicate): 32.4 ± 3.4%
Compound: Cc1cc(SCC(=O)Nc2ncccn2)n(-c2ccccc2)n1 [Compound 7g, 2-((3-Methyl-1-phenyl-1H-pyrazol-5-yl)thio)-N-(pyrimidin-2-yl)acetamide]

IC50 (HiDapE [1]; pH 7.5): 20.2 µM
inhibition at 100 µM (HiDapE [1]; triplicate): 96.2%
Compound: Cc1cc(SCC(=O)Nc2cnccn2)n(-c2ccccc2)n1 [Compound 7h, 2-((3-Methyl-1-phenyl-1H-pyrazol-5-yl)thio)-N-(pyrazin-2-yl)acetamide]

inhibition at 100 µM (HiDapE [1]; triplicate): 47.4 ± 7.2%
Compound: CCN(CC)C(=O)CSc1cc(C)nn1-c1ccccc1 [Compound 7j, N,N-Diethyl-2-((3-methyl-1-phenyl-1H-pyrazol-5-yl)thio)acetamide]

inhibition at 100 µM (HiDapE [1]; triplicate): 36.9 ± 2.7%
Compound: Cc1cc(SCC(=O)Nc2nc3ccccc3[nH]2)n(-c2ccccc2)n1 [Compound 7k, N-(1H-Benzo[d]imidazol-2-yl)-2-((3-methyl-1-phenyl-1H-pyrazol-5-yl)thio)acetamide]

inhibition at 100 µM (HiDapE [1]; triplicate): 28 ± 1.8%
Compound: Cc1cc(SC(C)C(=O)Nc2nccs2)n(-c2ccccc2)n1 (centres unmarked) [Compound 7l, 2-((3-Methyl-1-phenyl-1H-pyrazol-5-yl)thio)-N-(thiazol-2-yl)propanamide]

inhibition at 100 µM (HiDapE [1]; triplicate): 19.5 ± 0.1%
Compound: Cc1cc(SC(C)C(=O)Nc2ccon2)n(-c2ccccc2)n1 (centres unmarked) [Compound 7m, N-(Isoxazol-3-yl)-2-((3-methyl-1-phenyl-1H-pyrazol-5-yl)thio)propanamide]

inhibition at 100 µM (HiDapE [1]; triplicate): 79.4 ± 3.6%
Compound: Cc1cc(SC(C)C(=O)Nc2ccccc2)n(-c2ccccc2)n1 (centres unmarked) [Compound 7n, 2-((3-Methyl-1-phenyl-1H-pyrazol-5-yl)thio)-N-phenylpropanamide]

inhibition at 100 µM (HiDapE [1]; triplicate): 63.2 ± 1.8%
Compound: Cc1cc(SC(C)C(=O)NCc2ccccc2)n(-c2ccccc2)n1 (centres unmarked) [Compound 7o, N-Benzyl-2-((3-methyl-1-phenyl-1H-pyrazol-5-yl)thio)propanamide]

IC50 (HiDapE [1]; pH 7.5): 35.6 µM and 35.7 µM
inhibition at 100 µM (HiDapE [1]; triplicate): 97.4 ± 2%
Compound: Cc1cc(SC(C)C(=O)Nc2ccccn2)n(-c2ccccc2)n1 (centres unmarked) [Compound 7p, 2-((3-Methyl-1-phenyl-1H-pyrazol-5-yl)thio)-N-(pyridine-2-yl)propanamide]

% Inhibition at 100 μM (HiDapE [1]; 100 μM inhibitor, pH 7.5, triplicate): 99.1 ± 1.6%
IC50 (HiDapE [1]; pH 7.5): 18.8 µM
inhibition at 100 µM (HiDapE [1]; triplicate): 99%
binding mode (mode of inhibition) (HiDapE [2]; AICc comparison of competitive and noncompetitive models): competitive
likelihood of competitive over noncompetitive binding (HiDapE [2]; AICc statistical analysis): over 100 times
probability of competitive binding mode (HiDapE [2]; AICc statistical analysis): 99.2%
Tm1 (HiDapE) (HiDapE [3]; 1 μM inhibitor): 50.8 +/− 0.6 °C
Tm1 (HiDapE) (HiDapE [3]; 5 μM inhibitor): 50.1 +/− 0.1 °C
Tm1 (HiDapE) (HiDapE [3]; 10 μM inhibitor): 50.2 +/− 0.1 °C
Tm1 (HiDapE) (HiDapE [3]; 20 μM inhibitor): 52.7 +/− 0.3 °C
Tm1 (HiDapE) (HiDapE [3]; 40 μM inhibitor): 55.7 +/− 0.3 °C
Tm1 (HiDapE) (HiDapE [3]; 60 μM inhibitor): 60.6 +/− 0.7 °C
Tm1 (HiDapE) (HiDapE [3]; 80 μM inhibitor): 61.3 +/− 0.5 °C
Tm1 (HiDapE) (HiDapE [3]; 100 μM inhibitor): 63.1 +/− 0.2 °C
Tm (HiDapE [3]; as stated in the abstract): 50.2 °C
Ki (HiDapE [3]; calculated from positive melt temperature shift at Tm1, Van't Hoff equation): 17.3 ± 2.8 µM
shift in melt temperature at Tm2 (HiDapE [3]; negative shift as the inhibitor increases in concentration, Tm2 78.0 °C): ~−3 °C
shift in melt temperature at Tm1 (HiDapE [3]; positive shift as the inhibitor increases in concentration, Tm1 50.2 °C): +13 °C
Compound: Cc1cc(S[C@H](C)C(=O)Nc2ccccn2)n(-c2ccccc2)n1 [Compound 7q, (R)-2-((3-Methyl-1-phenyl-1H-pyrazol-5-yl)thio)-N-(pyridine-2-yl)propanamide]

inhibition at 100 µM (HiDapE [1]; triplicate): 14.6 ± 9.5%
Compound: Cc1cc(S[C@@H](C)C(=O)Nc2ccccn2)n(-c2ccccc2)n1 [Compound 7r, (S)-2-((3-Methyl-1-phenyl-1H-pyrazol-5-yl)thio)-N-(pyridine-2-yl)propanamide]
